Reference: paper PMC8877094, “Antiparasitic Ovalicin Derivatives from Pseudallescheria boydii, a Mutualistic Fungus of French Guiana Termites” (Molecules, 2022)
Read-outs that look alike come from different tables or passages of the source.

How the values were obtained:
Type in all cases: cell-based
[1] = system: Human umbilical vein endothelial cells (HUVECs); assay: Cytotoxic assay on HUVECs (CellTiter-Blue); settings: HUVEC, read-out: HUVECs (IC50 µM)
Method: Human umbilical vein endothelial cells (HUVECs) were obtained from Clonetics (Lonza; Walkersville, MD, USA) and cultured according to the supplier’s instructions. Briefly, HUVECs from three to six passages were subcultured to confluence onto 0.2% gelatin-coated tissue culture flasks in endothelial cell growth medium (EGM2) containing growth factors and 2% FCS. All cell lines were maintained at 37 °C in a humidified atmosphere containing 5% CO2. Cell viability was assessed using Promega (Promega France, Charbonnière-les-Bains, France) CellTiter-BlueTM reagent according to the manufacturer’s instructions. Cells were seeded in 96-well plates (5 × 10^3 cells per well) containing […] growth medium. After 24 h of culture, the cells were supplemented with […] of test compound dissolved in DMSO (<0.1% in each preparation). After incubation for 72 h, […] resazurin was added for 2 h before recording fluorescence (λex = 560 nm, λem = 590 nm) using a Victor microtiter plate fluorimeter (PerkinElmer France, Villebon-sur-Yvette, France). IC50 values correspond to the concentration of test compound that elicited a 50% decrease in fluorescence for drug-treated cells relative to untreated cells. Experiments were performed in triplicate.

[2] = system: Plasmodium falciparum FcB1/Colombia strain; assay: In vitro growth inhibition of chloroquine-resistant P. falciparum ([3H]-hypoxanthine incorporation); settings: FCB1, Erythrocyte, 48 h
Method: The FcB1/Colombian strain of Plasmodium falciparum was maintained in vitro in human erythrocytes in an RPMI 1640 reaction mixture supplemented with 8% (v/v) heat-inactivated human serum at 37 °C under an atmosphere of 3% CO2, 6% O2, and 91% N2. The chloroquine-resistant strain FcB1/Colombia of Plasmodium falciparum was obtained from the National Museum Natural History collection, Paris, France (n°MNHN-CEU-224-PfFCB1). Parasites were maintained in vitro on human A+ erythrocytes in RPMI 1640 medium supplemented by 8% (v/v) heat-inactivated human serum at 37 °C under an atmosphere of 3% CO2, 6% O2, and 91% N2. Human red blood cells and serum were provided by the Etablissement Français du Sang, Ile de France (EFS, Paris, France) under the C-CPSL-UNT approval n°13/EFS/126. In vitro drug susceptibility assays were measured by [^3H]-hypoxanthine incorporation as described previously. Drug solutions were prepared in DMSO at a 10 mM concentration. Compounds were serially diluted 2-fold with 100 μL culture medium in 96-well plates. Asynchronous parasite cultures (100 μL, 1% parasitemia and 1% final hematocrit) were then added to each well and incubated for 24 h at 37 °C prior to the addition of 0.5 μCi of [^3H]-hypoxanthine (GE Healthcare, Tremblay-en-France, France, 1 to 5 Ci·mmol/mL) per well. After a further incubation of 24 h, plates were frozen and thawed. Cell lysates were then collected onto fiberglass filters and counted in a liquid scintillation spectrometer. The growth inhibition for each drug concentration was determined by comparison of the radioactivity incorporated in the treated culture with that in the control culture maintained on the same plate. The concentration causing 50% growth inhibition (IC50) was obtained from the drug concentration–response curve, and the results are expressed as the mean values ± standard deviations determined from several independent experiments.

[3] = system: Trypanosoma brucei brucei strain 93 bloodstream forms; assay: In vitro inhibition of T. brucei brucei growth (AlamarBlue/resazurin); settings: bloodstream forms strain 93, 72 h incubation + 4 h resazurin, mean ± SD of three independent experiments
Method: Bloodstream forms of Trypanosoma brucei brucei strain 93 were cultured in HMI9 medium supplemented with 10% FCS at 37 °C under an atmosphere of 5% CO2. In all experiments, log-phage cell cultures were harvested by centrifugation at 3000× g and immediately used. Drug assays were based on the conversion of a redox-sensitive dye (resazurin) to a fluorescent product by viable cells and were performed according to the manufacturer recommendations (AlamarBlue® Assay, Invitrogen Corporation, Carlsbad, CA, USA). Drug stock solutions were prepared in pure DMSO. […] After a 72 h incubation, resazurin solution was added to each well at with a final concentration of 45 μM. Fluorescence was measured at 530 nm excitation and 590 nm emission wavelengths after a further 4 h incubation. The percentage of inhibition of the parasite growth rate was calculated by comparing the fluorescence of parasites maintained in the presence of drug with that in the absence of drug. DMSO was used as control. […] IC50s were determined from the dose–response curves with drug concentrations ranging from 100 μM to 50 nM. The IC50 value is the mean ± the standard deviation of three independent experiments.

[4] = cell viability, 72 h incubation, CellTiter-Blue, triplicate
[5] = chloroquine-resistant FcB1/Colombia strain, human erythrocytes, 24 h + 24 h with [3H]-hypoxanthine, mean ± SD, read-out: P. falciparum (IC50 µM)

| IC50 [2, 5] [µM] | IC50 ([3]; 72 h) [µM] | IC50 [3] [µM] | Compound | IC50 [1, 4] [µM] | IC50 ([2]; read-out: P. falciparum (IC50 µM), chloroquine-resistant FcB1/Colombia strain, human erythrocytes, 24 h + 24 h with [3H]-hypoxanthine, mean ± SD) [µM] | IC50 ([1]; 72 h) [µM] |
| --- | --- | --- | --- | --- | --- | --- |
| < 20.6 | 4.1 ± 2.1 |  | CCCCCCCCCCCCCCCCCC(=O)OC[C@@]1(O)CCC(=O)[C@@H](OC)[C@]1(O)[C@@]1(C)O[C@@H]1CC=C(C)C [Compound 4] | 70 ± 1 |  |  |
|  |  |  | CO[C@@H]1C(=O)CC[C@]2(CO2)[C@@]1(O)[C@@]1(C)O[C@@H]1CC=C(C)C [Compound 1, Ovalicin] | 13 ± 2 | < 20.6 |  |
| < 20.6 | < 1.1 |  | CCCCC/C=C\C/C=C\CCCCCCCC(=O)OC[C@@]1(O)CCC(=O)[C@@H](OC)[C@]1(O)[C@@]1(C)O[C@@H]1CC=C(C)C [Compound 2, Ovalicin linoleate] | 37 ± 3 |  |  |
|  |  | 0.011 ± 0.0017 | N=C(N)c1ccc(OCCCCCOc2ccc(C(=N)N)cc2)cc1 [Pentamidine, reference compound] |  |  |  |
|  |  |  | CO[C@@H]1[C@H](OC(=O)/C=C/C=C/C=C/C=C/C(=O)O)CC[C@]2(CO2)[C@H]1[C@@]1(C)O[C@@H]1CC=C(C)C [Fumagillin, reference compound] |  |  | 0.006 ± 0.002 |
| > 50 | 4.8 ± 2.7 |  | CCCCCCCC/C=C\CCCCCCCC(=O)OC[C@@]1(O)CCC(=O)[C@@H](OC)[C@]1(O)[C@@]1(C)O[C@@H]1CC=C(C)C [Compound 3, Ovalicin oleate] | 45 ± 2 |  |  |
